Tests used:
Homo sapiens [1] = organism: Homo sapiens; assay: The compound was tested for inhibition of blood platelet aggregation induced by ADP; assay type: functional, organism-based
[2] = target: Prostacyclin receptor (Homo sapiens) (UniProt P43119); assay: Affinity for Prostaglandin I2 receptor; set-up: unit not given here
[3] = Evaluated for the relative potency to that of Iloprost.; assay type: functional
Homo sapiens [4] = organism: Homo sapiens; assay: The compound was tested for inhibition of blood platelet aggregation induced by ADP; 100-250*10e-9; assay type: functional, organism-based
Homo sapiens [5] = organism: Homo sapiens; assay: Compound was tested for inhibition of blood platelet aggregation induced by ADP; 0.2-0.5*10e-9; assay type: functional, organism-based
Homo sapiens [6] = organism: Homo sapiens; assay: The compound was tested for inhibition of blood platelet aggregation induced by ADP; 0.5-2.5*10e-9; assay type: functional, organism-based

Chain of Prostacyclin receptor (Homo sapiens) (P43119 whole entry): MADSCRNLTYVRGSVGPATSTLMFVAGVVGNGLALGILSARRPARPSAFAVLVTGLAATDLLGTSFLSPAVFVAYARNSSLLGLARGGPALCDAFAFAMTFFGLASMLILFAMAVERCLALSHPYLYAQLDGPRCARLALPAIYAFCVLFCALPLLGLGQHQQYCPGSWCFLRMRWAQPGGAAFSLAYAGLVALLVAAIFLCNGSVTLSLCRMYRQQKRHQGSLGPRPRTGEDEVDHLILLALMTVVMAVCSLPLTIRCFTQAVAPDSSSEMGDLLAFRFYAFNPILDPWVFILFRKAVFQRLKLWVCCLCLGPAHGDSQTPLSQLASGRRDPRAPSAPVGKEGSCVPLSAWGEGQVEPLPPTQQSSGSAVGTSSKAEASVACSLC

SMILES | IC50 (Homo sapiens [1]) | KF [2] | Relative potency [3] | IC50 (Homo sapiens [4]) | IC50 (Homo sapiens [5]) | IC50 (Homo sapiens [6])
CC#CCC(C)[C@H](O)/C=C/[C@H]1[C@H](O)C[C@]2(C#CCCCN=[N+]=[N-])C/C(=C\CCCC(=O)O)C[C@H]12 (some centres undefined) | 20 nM | 6 | 0.1 |  |  | 
CC#CCC(C)[C@H](O)/C=C/[C@H]1[C@H](O)C[C@]2(CCC#CCCCO)C/C(=C\CCCC(=O)O)C[C@H]12 (some centres undefined) | 400 nM | 180 | 0.002 |  |  | 
CC#CCC(C)[C@H](O)/C=C/[C@H]1[C@H](O)C[C@]2(C#CCCCO)C/C(=C/CCCC(=O)O)C[C@H]12 (some centres undefined) | 200 nM | 300 | 0.004 |  |  | 
CC#CCC(C)[C@H](O)/C=C/[C@H]1[C@H](O)C[C@]2(CCCCCO)C/C(=C\CCCC(=O)O)C[C@H]12 (some centres undefined) | 7000 nM | 130 | 0.0006 |  |  | 
CC#CCC(C)[C@H](O)/C=C/[C@H]1[C@H](O)C[C@]2(C#CCCCO)C/C(=C\CCCC(=O)O)C[C@H]12 (some centres undefined) | 10 nM | 25 | 0.2 |  |  | 
CC#CCC(C)[C@H](O)/C=C/[C@@H]1[C@H]2CC(=CCCCC(=O)O)C[C@H]2C[C@H]1O (some centres undefined) [ILOPROST] | 4400 nM | 11 | 0.0001 |  |  | 
CC#CCC(C)[C@H](O)/C=C/[C@H]1[C@H](O)C[C@]2(C#CCCCI)C/C(=C/CCCC(=O)O)C[C@H]12 (some centres undefined) | 200 nM | > 100 | 0.001 |  |  | 
CC#CCC(C)[C@H](O)/C=C/[C@H]1[C@H](O)C[C@]2(CCCCCN=[N+]=[N-])C/C(=C\CCCC(=O)O)C[C@H]12 (some centres undefined) | 500 nM | 29 | 0.0005 |  |  | 
CC#CCC(C)[C@H](O)/C=C/[C@H]1[C@H](O)C[C@]2(C#CCCC(=O)O)C/C(=C\CCCC(=O)O)C[C@H]12 (some centres undefined) | 2000 nM | 200 | 0.0002 |  |  | 
CC#CCC(C)[C@H](O)/C=C/[C@H]1[C@H](O)C[C@]2(CCCCCO)C/C(=C/CCCC(=O)O)C[C@H]12 (some centres undefined) | 11000 nM | n.k. | 4e-05 |  |  | 
CC#CCC(C)[C@H](O)/C=C/[C@H]1[C@H](O)C[C@]2(C#CCCCBr)C/C(=C/CCCC(=O)O)C[C@H]12 (some centres undefined) |  |  | 0.001 | 100 nM |  | 
CC#CCC(C)[C@H](O)/C=C/[C@H]1[C@H](O)C[C@]2(C#CCCCN=[N+]=[N-])C/C(=C/CCCC(=O)O)C[C@H]12 (some centres undefined) | 850 nM | 80 | 0.003 |  |  | 
CC#CCC(C)[C@H](O)/C=C/[C@@H]1[C@H]2C/C(=C/CCCC(=O)O)C[C@H]2C[C@H]1O (stereo in doubt; 1) [ILOPROST] |  | 1 | 1 |  | 0.2 nM | 
CC#CCC(C)[C@H](O)/C=C/[C@H]1[C@H](O)C[C@]2(C#CCCCBr)C/C(=C\CCCC(=O)O)C[C@H]12 (some centres undefined) |  | 3 | 1 |  |  | 0.5 nM
CC#CCC(C)[C@H](O)/C=C/[C@H]1[C@H](O)C[C@]2(C#CCCCI)C/C(=C\CCCC(=O)O)C[C@H]12 (some centres undefined) | 5 nM | 5.6 | 1 |  |  | 

From ChEMBL document CHEMBL1126418, “Synthesis of chemically stable 9-substituted carbacyclin derivatives and their biological use” (Bioorg Med Chem Lett, 1992)
